Values quoted from earlier work, collected in publication PMC9207678 (Journal of Mass Spectrometry and Advances in the Clinical …, 2022).

Settings: ratio to insulin, ref [2], [3]

C-peptide
half-life in circulation relative to insulin: 6–10 times
